Data from patent publication US10519504B2, “Methods for treatment of oncological disorders using epimetabolic shifters, multidimensional intracellular molecules, or environmental influencers” (Berg LLC, priority 2009, dated 2019).

Test system: Lactate Dehydrogenase (LDH)
Assay: Western blot, Lactate Dehydrogenase levels
Assay type: cell-based, human
Procedure: The samples were processed and run on a 4-12% Bis-Tris Novex NuPAGE gel as described above. The gels were run, transferred and stained essentially as described above.
After transfer each blot was dried for 15-20 minutes, activated with methanol for 5 seconds, washed with water for 5 minutes, and TBST for 15 minutes. The blots were blocked for 1 hour with 5% blocking reagent in TBS-T at room temperature and then washed 3 times with TBS-T (1X−15′; 2X5′ each) and probed with the primary antibody for Lactate Dehydrogenase (abcam ab2101; polyclonal) in 5% BSA (at 1:1000 dilutions) by incubation overnight at 4 deg C. with shaking. After the overnight incubation with primary antibody for Lactate Dehydrogenase, the blots were washed 3 times with TBS-T (1X−15′; 2X5′ each) and probed with the secondary antibody (rabbit antigoat; 1:10,000 dilution) for 1 h at room temperature. After 1 h of incubation with secondary antibodies, the blots were washed 3 times with TBS-T (1X−15′; 2X5′ each) and then incubated with ECF reagent for 5 mins and then each blot scanned with 5100 Fuji Laser scanner at 25 uM resolution, 16 bit, green laser, at 400V and at 500 V. […]
The levels of LDH and PDH were determined by probing the blots successively with primary antibodies for LDH and PDH, essentially as described above. […]

COC1=C(OC)C(=O)C(C/C=C(\C)CC/C=C(\C)CC/C=C(\C)CC/C=C(\C)CC/C=C(\C)CC/C=C(\C)CC/C=C(\C)CC/C=C(\C)CC/C=C(\C)CCC=C(C)C)=C(C)C1=O [Q10, Coenzyme Q10]
LDH expression (cancer): reduced Lactate Dehydrogenase (LDH) expression in cancer
LDH expression (normal cells): minimal effect on normal cells
